Assay results published in US20260101897A1, “PLANT ENVIRONMENTAL STRESS TOLERANCE IMPROVEMENT AGENT AND ENVIRONMENTAL STRESS TOLERANCE IMPROVEMENT METHOD” (priority 2022, published 2026).

Legend:
Type in all cases: in vivo
cotton = assay: Evaluation Example 3: tolerance to drying stress, leaf necrotizing; settings: for Leaf necrotizing rate: test compound 0.1 mM (50 mL), 4 days after stoppage of water; for Leaf necrotizing rate / Environmental stress suppressing rate: drying stress Yes; for Environmental stress suppressing rate: test compound 0.1 mM
Protocol: EGT and GB were commercially available products, and pure water was used as a solvent.
In a plastic pot having a diameter of 60 mm and a height of 55 mm, 90 mL of granular soil (Kumiai horticultural soil) was placed, and one individual cotton (manufactured by TOHOKU SEED CO., LTD.) was seeded per pot.
They were managed in a greenhouse set at room temperature of 25° C. EGT in an amount of 50 mL or GB in an amount of 50 mL was added on the 23rd day after seeding, and drying stress was applied by stopping water supply for 4 days after 4 days from the addition of EGT or GB.
The leaves were collected 4 days after the stoppage of water and photographed with a digital camera. The photographed pictures of the leaves were analyzed with image analysis software WinROOF (manufactured by MITANI Corporation) to quantify the total leaf area and the green leaf area.
Using the above-described total leaf area and green leaf area, the leaf necrotizing rate after 4 days from the stoppage of water was evaluated. The leaf necrotizing rate and the environmental stress suppressing rate were calculated according to the following formulas.

wheat = assay: Evaluation Example 10: tolerance to ultraviolet stress, leaf mortality; settings: for Environmental stress suppressing rate: ultraviolet stress Yes
Protocol: EGT (Examples 12 and 13, Comparative Examples 37 and 38) or GB (Comparative Examples 35, 36, 39, and 40) was prepared so as to have a concentration shown in Table 10 below. EGT and GB were commercially available products, and pure water was used as a solvent.
5 mL of pure water was added to 9-cm petri dishes on which filter paper was placed, and 10 wheat seeds were seeded per petri dish. They were located in a growth chamber set at room temperature of 22° C., and the light period was 16 hours and the dark period was 8 hours. The light conditions were set such that the light intensity was 5000 lx in the central part under irradiation with the fluorescent lamp.
On the 7th day after seeding, pure water in the petri dish was removed, 5 mL of EGT or 5 mL of GB was added to the petri dish, and one day after that, ultraviolet stress was applied by exposure for one hour under irradiation with an ultraviolet lamp (GL-15, manufactured by Toshiba Corporation) with the intensity of ultraviolet radiation of a wavelength of 254 nm set to 550 μW/cm^−2.
The dead leaves were counted 6 days after the ultraviolet stress was applied, and the leaf mortality rate was evaluated as an index of physiological disorder. The leaf mortality rate and the environmental stress suppressing rate were calculated according to the following formulas.

turf (Manila grass) = assay: Evaluation Example 11: tolerance to ultraviolet stress, leaf mortality; settings: for Environmental stress suppressing rate: ultraviolet stress Yes
Protocol: EGT (Examples 14 and 15, Comparative Examples 45 and 46) or GB (Comparative Examples 43, 44, 47 and 48) was prepared so as to have a concentration shown in Table 11 below. EGT and GB were commercially available products, and pure water was used as a solvent.
Turf (Manila grass) cut into a 50 mm square was placed on a petri dish and managed in a greenhouse at room temperature of 25° C. The plant height was trimmed to the length of 10 mm. 10 mL of EGT or 10 ml of GB was added per petri dish, and one day after that, ultraviolet stress was applied by exposure for one hour under irradiation with an ultraviolet lamp (GL-15, manufactured by Toshiba Corporation) with the intensity of ultraviolet radiation of a wavelength of 254 nm set to 525 μW/cm^−2.
Dead leaves were counted 7 days after the ultraviolet stress was applied, and the leaf mortality rate was evaluated as an index of physiological disorder. The leaf mortality rate and the environmental stress suppressing rate were calculated according to the following formulas.

broccoli = assay: Evaluation Example 13: tolerance to freezing stress, plant mortality; settings: for Environmental stress suppressing rate: freezing stress Yes
Protocol: EGT (Example 17, Comparative Example 55) or GB (Comparative Examples 54 and 56) was prepared so as to have the concentration shown in Table 13 below. EGT and GB were commercially available products, and pure water was used as a solvent.
5 mL of pure water was added to 9-cm petri dishes on which filter paper was placed, and 10 broccoli seeds were seeded per petri dish. They were located in a growth chamber set at room temperature of 22° C., and the light period was 16 hours and the dark period was 8 hours. The light conditions were set such that the light intensity was 5000 lx in the central part under irradiation with the fluorescent lamp.
On the 6th day after seeding, pure water in the petri dish was removed, and then, 5 mL of EGT or 5 mL of GB was added to the petri dish, and freezing stress was applied by, 14 days after the addition, a first exposure to an environment of −20° C. for 20 minutes, and, 1 day after the first exposure, a second exposure to an environment of −20° C. for 20 minutes.
The surviving plants were counted 24 hours after the freezing stress was applied, and the mortality rate of the plants was evaluated as an index of physiological disorder. The mortality rate and the environmental stress suppressing rate were calculated according to the following formulas.

arugula = assay: Evaluation Example 15: tolerance to low temperature stress, leaf wilting; settings: for Environmental stress suppressing rate: low temperature stress Yes
Protocol: EGT (Examples 19 and 20, Comparative Examples 66 and 67) or GB (Comparative Example 64, 65, 68 and 69) was prepared so as to have a concentration shown in Table 15 below. EGT and GB were commercially available products, and pure water was used as a solvent.
1 mL of pure water was added to 3.5-cm petri dishes on which filter paper was placed, and 5 arugula seeds were seeded per petri dish. They were located in a growth chamber set at room temperature of 22° C., and the light period was 16 hours and the dark period was 8 hours. The light conditions were set such that the light intensity was 5000 lx in the central part under irradiation with the fluorescent lamp.
On the 4th day after seeding, pure water in the petri dish was removed, and then 1 mL of EGT or 1 mL of GB was added, and 24 hours after that, low temperature stress was applied by exposure to an environment of 4° C. for 48 hours.
The number of wilted arugula leaves was evaluated 3 days after the low temperature stress was applied. The leaf wilting rate and the environmental stress suppressing rate were calculated according to the following formulas.

[1] = test compound 0.1 mM (5 mL), ultraviolet stress Yes (254 nm, one hour), 6 days after stress
[2] = test compound 0.1 mM, ultraviolet stress No
[3] = test compound 1 mM (5 mL), ultraviolet stress Yes (254 nm, one hour), 6 days after stress
[4] = test compound 1 mM, ultraviolet stress No
[5] = test compound 0.1 mM (10 mL), ultraviolet stress Yes (254 nm, one hour), 7 days after stress
[6] = test compound 1 mM (10 mL), ultraviolet stress Yes (254 nm, one hour), 7 days after stress
[7] = test compound 0.1 mM (5 mL), freezing stress Yes (−20° C. for 20 minutes, twice), 24 hours after stress
[8] = test compound 0.1 mM, freezing stress No
[9] = test compound 0.1 mM (1 mL), low temperature stress Yes (4° C. for 48 hours), 3 days after stress
[10] = test compound 0.1 mM, low temperature stress No
[11] = test compound 1 mM (1 mL), low temperature stress Yes (4° C. for 48 hours), 3 days after stress
[12] = test compound 1 mM, low temperature stress No
[13] = GB 1 mM and 0.1 mM, ultraviolet stress

Row | SMILES | Leaf necrotizing rate (cotton) | Environmental stress suppressing rate (cotton) | Leaf mortality rate (wheat; [1]) | Leaf mortality rate (wheat; [2]) | Environmental stress suppressing rate (wheat; test compound 0.1 mM) | Leaf mortality rate (wheat; [3]) | Leaf mortality rate (wheat; [4]) | Environmental stress suppressing rate (wheat; test compound 1 mM) | Leaf mortality rate (turf (Manila grass); [5]) | Leaf mortality rate (turf (Manila grass); [2]) | Environmental stress suppressing rate (turf (Manila grass); test compound 0.1 mM) | Leaf mortality rate (turf (Manila grass); [6]) | Leaf mortality rate (turf (Manila grass); [4]) | Environmental stress suppressing rate (turf (Manila grass); test compound 1 mM) | Mortality rate (broccoli; [7]) | Mortality rate (broccoli; [8]) | Environmental stress suppressing rate (broccoli; test compound 0.1 mM) | Leaf wilting rate (arugula; [9]) | Leaf wilting rate (arugula; [10]) | Environmental stress suppressing rate (arugula; test compound 0.1 mM) | also measured
1 | C[N+](C)(C)[C@@H](Cc1c[nH]c(=S)[nH]1)C(=O)[O-] [EGT, L-(+)-ergothioneine] | 26% | 50% | 34% | 1% | 36% | 23% | 0% | 57% | 13% | 2% | 79% | 6% | 0% | 90% | 38% | 0% | 56% | 0% | 0% | 100% | Leaf wilting rate (arugula; [11]): 0%; Leaf wilting rate (arugula; [12]): 0%; Environmental stress suppressing rate (arugula; test compound 1 mM): 100%
2 | C[N+](C)(C)CC(=O)[O-] [GB, glycine betaine, reference compound] | 68% | 0% | 50% | 5% | 6% | 44% | 0% | 17% | 54% | 2% | 14% | 59% | 0% | 6% | 100% | 0% | 0% | 60% | 0% | 10% | necrotizing due to drying stress, result in words (cotton; 0.1 mM, drying stress): not suppressed; mortality rate due to ultraviolet stress, result in words (wheat; [13]): hardly suppressed; mortality rate due to ultraviolet stress, result in words (turf (Manila grass); [13]): hardly suppressed; mortality rate due to freezing stress, result in words (broccoli; 0.1 mM, freezing stress): not suppressed; leaf wilting rate due to low temperature stress, result in words (arugula; GB 1 mM and 0.1 mM, low temperature stress): hardly suppressed; Leaf wilting rate (arugula; [11]): 60%; Leaf wilting rate (arugula; [12]): 0%; Environmental stress suppressing rate (arugula; test compound 1 mM): 10%
